Reference: patent US10189845B2, “4,6-substituted-pyrazolo[1,5-a]pyrazines as janus kinase inhibitors” (ARRAY BIOPHARMA INC., priority 2014, dated 2019)
Where two headings read alike, the source gives them in different places.

Key:
Format in all cases: biochemical
[1] = molecular target: JAK3 (Homo sapiens (Human), UniProt P52333); assay: JAK3 Inhibition Assay (Example D, Omnia kinase fluorescence peptide substrate assay)
Summary of the method: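 Mixture held 2 nM JAK3, 1 mM ATP and 10 μM Omnia Y7 peptide in 25 mM HEPES pH 7.4, 10 mM MgCl2, 0.01% Triton X-100, 1 mM DTT, 2% DMSO final. Sox fluorescence (ex 360/em 485 nm) was read every 50 s for 45 min. IC50 came from a 4-parameter logistic fit of percent of control.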

[2] = molecular target: JAK2 (Homo sapiens (Human), UniProt O60674); assay: JAK2 Inhibition Assay (Example C, Omnia kinase fluorescence peptide substrate assay); details: JAK2 Enzyme IC50 1 mM ATP, averaged IC50 ranges
Summary of the method: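 4 nM JAK2 with 1 mM ATP and 10 μM Omnia Y7 peptide in 25 mM HEPES pH 7.4, 10 mM MgCl2, 0.01% Triton X-100, 1 mM DTT, 2% DMSO. Sox fluorescence (ex 360/em 485 nm) read every 50 s for 45 min; IC50 from 4-parameter fit of percent of control.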

[3] = molecular target: Human Tyk2 kinase domain (Homo sapiens (Human), UniProt P29597); assay: Tyk2 Inhibition Assay (Example A, Omnia kinase fluorescence peptide substrate assay); details: TYK2 Enzyme IC50 1 mM ATP, averaged IC50 ranges
Summary of the method: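 Omnia Sox-peptide kinetic fluorescence assay (ex 360/em 485 nm, read every 50 s for 45 min) with 1 nM human Tyk2 kinase domain (aa 886–1187, His tag cleaved, baculovirus-expressed), 1 mM ATP, 8 μM Omnia Y12 peptide, in 25 mM HEPES pH 7.4, 10 mM MgCl2, 0.01% Triton X-100, 1 mM DTT, 2% DMSO. IC50 from 4-parameter logistic fit of percent of control.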

[4] = molecular target: JAK1 (Homo sapiens (Human), UniProt P23458); assay: JAK1 Inhibition Assay (Example B, Omnia kinase fluorescence peptide substrate assay)
Summary of the method: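 Recombinant human JAK1 (12.5 nM) with 1 mM ATP and 8 μM Omnia Y12 Sox-peptide in 25 mM HEPES pH 7.4, 10 mM MgCl2, 0.01% Triton X-100, 1 mM DTT, 2% DMSO final. Phosphorylation read kinetically (ex 360/em 485 nm, 45 min); IC50 from 4-parameter fit of percent of control.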

[5] = JAK1 Enzyme IC50 1 mM ATP, 1 mM ATP, averaged IC50 ranges

Human Tyk2 kinase domain, sequence (P29597 886-1187): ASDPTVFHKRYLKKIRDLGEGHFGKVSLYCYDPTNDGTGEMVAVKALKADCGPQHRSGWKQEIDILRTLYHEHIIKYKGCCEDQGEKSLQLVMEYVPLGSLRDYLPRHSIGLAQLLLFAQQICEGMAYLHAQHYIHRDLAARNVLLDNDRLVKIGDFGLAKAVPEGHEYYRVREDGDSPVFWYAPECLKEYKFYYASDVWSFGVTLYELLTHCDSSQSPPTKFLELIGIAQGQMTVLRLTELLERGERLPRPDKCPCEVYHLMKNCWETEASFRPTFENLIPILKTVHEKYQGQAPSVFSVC
JAK3, sequence (P52333 whole entry): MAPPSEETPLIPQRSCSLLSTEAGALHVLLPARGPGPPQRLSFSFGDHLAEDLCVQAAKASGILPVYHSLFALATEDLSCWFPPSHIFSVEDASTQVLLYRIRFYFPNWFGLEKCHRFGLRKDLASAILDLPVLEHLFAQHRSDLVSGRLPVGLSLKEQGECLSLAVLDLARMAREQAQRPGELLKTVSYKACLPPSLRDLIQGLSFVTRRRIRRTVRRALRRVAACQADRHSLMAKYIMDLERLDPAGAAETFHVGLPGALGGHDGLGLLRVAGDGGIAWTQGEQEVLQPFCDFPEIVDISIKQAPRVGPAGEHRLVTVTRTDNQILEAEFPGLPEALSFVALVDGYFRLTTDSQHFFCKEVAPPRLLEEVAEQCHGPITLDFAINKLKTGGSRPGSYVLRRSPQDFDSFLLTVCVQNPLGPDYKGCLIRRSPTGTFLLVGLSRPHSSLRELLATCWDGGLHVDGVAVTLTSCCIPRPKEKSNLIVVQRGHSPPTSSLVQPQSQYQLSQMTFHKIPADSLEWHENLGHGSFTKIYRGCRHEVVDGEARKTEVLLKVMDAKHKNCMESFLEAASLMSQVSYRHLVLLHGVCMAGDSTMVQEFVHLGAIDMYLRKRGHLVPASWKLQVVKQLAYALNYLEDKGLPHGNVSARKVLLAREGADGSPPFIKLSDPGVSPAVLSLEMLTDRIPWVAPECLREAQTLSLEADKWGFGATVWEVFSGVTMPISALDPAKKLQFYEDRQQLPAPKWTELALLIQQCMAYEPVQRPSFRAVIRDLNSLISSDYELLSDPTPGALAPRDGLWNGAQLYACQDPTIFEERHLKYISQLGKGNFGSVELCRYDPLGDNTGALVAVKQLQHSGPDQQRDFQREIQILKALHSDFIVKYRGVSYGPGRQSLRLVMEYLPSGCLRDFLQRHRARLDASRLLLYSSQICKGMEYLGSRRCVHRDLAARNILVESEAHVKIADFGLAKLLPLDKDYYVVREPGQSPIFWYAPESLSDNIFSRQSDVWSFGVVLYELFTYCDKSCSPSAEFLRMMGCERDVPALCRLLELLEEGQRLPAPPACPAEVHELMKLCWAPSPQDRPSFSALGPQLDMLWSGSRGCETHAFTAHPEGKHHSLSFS
JAK1, sequence (P23458 whole entry): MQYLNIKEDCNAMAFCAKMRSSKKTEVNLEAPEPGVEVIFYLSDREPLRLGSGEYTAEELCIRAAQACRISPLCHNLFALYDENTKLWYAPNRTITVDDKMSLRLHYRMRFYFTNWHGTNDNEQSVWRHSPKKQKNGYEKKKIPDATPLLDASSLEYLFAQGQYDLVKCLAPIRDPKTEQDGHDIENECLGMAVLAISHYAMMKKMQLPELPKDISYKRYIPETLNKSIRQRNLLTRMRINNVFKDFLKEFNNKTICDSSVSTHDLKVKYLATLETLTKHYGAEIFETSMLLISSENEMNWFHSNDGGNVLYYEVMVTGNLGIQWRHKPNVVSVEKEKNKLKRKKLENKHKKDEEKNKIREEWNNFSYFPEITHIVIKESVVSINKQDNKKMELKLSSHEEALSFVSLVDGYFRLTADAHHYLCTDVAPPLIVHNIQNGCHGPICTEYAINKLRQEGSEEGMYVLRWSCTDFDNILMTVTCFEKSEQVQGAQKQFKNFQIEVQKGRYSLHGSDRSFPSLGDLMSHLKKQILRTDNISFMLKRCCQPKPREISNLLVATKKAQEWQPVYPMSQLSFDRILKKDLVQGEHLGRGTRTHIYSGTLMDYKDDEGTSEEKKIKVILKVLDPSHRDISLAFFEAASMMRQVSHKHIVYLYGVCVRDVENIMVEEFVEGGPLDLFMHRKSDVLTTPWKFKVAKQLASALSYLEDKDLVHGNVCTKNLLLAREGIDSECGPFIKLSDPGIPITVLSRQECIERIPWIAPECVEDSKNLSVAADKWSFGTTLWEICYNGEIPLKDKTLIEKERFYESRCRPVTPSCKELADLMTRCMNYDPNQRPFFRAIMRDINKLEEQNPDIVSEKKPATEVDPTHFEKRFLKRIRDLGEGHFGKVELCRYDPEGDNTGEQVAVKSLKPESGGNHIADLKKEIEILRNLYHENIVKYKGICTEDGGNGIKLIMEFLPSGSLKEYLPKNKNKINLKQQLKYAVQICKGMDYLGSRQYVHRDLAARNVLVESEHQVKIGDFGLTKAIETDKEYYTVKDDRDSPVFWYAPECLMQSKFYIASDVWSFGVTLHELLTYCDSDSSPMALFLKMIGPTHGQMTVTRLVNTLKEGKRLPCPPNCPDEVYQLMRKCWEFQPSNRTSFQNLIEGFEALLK
JAK2, sequence (O60674 whole entry): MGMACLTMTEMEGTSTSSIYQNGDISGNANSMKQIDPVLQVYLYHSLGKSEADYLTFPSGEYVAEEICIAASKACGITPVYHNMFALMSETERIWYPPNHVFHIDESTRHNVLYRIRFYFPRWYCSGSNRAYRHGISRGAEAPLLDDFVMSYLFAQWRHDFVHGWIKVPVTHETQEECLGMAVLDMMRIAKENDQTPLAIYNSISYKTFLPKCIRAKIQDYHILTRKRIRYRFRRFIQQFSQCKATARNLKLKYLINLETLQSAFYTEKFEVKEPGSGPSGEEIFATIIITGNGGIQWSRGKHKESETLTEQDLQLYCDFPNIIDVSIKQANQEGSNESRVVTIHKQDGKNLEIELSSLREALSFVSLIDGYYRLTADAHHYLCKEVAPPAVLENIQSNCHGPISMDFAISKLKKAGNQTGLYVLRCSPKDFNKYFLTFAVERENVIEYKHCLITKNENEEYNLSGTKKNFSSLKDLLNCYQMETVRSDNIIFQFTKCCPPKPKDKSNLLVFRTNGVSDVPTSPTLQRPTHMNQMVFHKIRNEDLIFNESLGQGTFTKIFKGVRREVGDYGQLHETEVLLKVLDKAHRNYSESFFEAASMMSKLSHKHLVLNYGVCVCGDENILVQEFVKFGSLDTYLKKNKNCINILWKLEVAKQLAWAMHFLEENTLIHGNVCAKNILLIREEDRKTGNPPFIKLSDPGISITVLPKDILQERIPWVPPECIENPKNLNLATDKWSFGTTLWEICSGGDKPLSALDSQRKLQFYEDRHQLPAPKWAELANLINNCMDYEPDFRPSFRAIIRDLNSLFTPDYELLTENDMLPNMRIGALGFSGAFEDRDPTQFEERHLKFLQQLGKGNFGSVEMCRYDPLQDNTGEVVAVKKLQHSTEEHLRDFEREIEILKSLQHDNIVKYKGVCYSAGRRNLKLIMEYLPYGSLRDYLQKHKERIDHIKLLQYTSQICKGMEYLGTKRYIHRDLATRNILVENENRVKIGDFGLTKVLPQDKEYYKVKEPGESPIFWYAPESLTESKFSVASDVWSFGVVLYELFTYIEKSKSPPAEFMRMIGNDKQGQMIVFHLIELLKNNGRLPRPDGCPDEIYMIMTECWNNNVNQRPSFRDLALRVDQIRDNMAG

SMILES	IC50 [1] [µM]	IC50 [2] [nM]	IC50 [3] [nM]	IC50 [4] [nM]	IC50 [4, 5] [nM]
CCC(CC)n1cc(-c2nc(-c3cnn(CCN4CCC(CO)CC4)c3)cn3nccc23)cn1 [Example 146, (1-(2-(4-(4-(1-(pentan-3-yl)-1H-pyrazol-4-yl)pyrazolo[1,5-a]pyrazin-6-yl)-1H-pyrazol-1-yl)ethyl)piperidin-4-yl)methanol]	1 to 10	10 to 100	10 to 100	1000 to 10000	
CC1CCCCCC1n1cc(-c2nc(-c3cnn(C)c3)cn3nccc23)cn1 (centres unmarked) [Example 52, 6-(1-methyl-1H-pyrazol-4-yl)-4-(1-(2-methylcycloheptyl)-1H-pyrazol-4-yl)pyrazolo[1,5-a]pyrazine]	1 to 10	10 to 100	10 to 100	100 to 1000	
CCC(CC)n1cc(-c2nc(-c3cnn(C4CN(C(=O)[C@@H](C)O)C4)c3)cn3nccc23)cn1 [Example 175, (R)-2-hydroxy-1-(3-(4-(4-(1-(pentan-3-yl)-1H-pyrazol-4-yl)pyrazolo[1,5-a]pyrazin-6-yl)-1H-pyrazol-1-yl)azetidin-1-yl)propan-1-one]	1 to 10	10 to 100	100 to 1000	1000 to 10000	
CCC(CC)n1cc(-c2nc(-c3cnn(CCN4CCC(O)CC4)c3)cn3nccc23)cn1 [Example 139, 1-(2-(4-(4-(1-(pentan-3-yl)-1H-pyrazol-4-yl)pyrazolo[1,5-a]pyrazin-6-yl)-1H-pyrazol-1-yl)ethyl)piperidin-4-ol]	1 to 10	100 to 1000	10 to 100	100 to 1000	
Cn1cc(-c2cn3nccc3c(-c3cnn(C4(C)CCCC4)c3)n2)cn1 [Example 49, 6-(1-methyl-1H-pyrazol-4-yl)-4-(1-(1-methylcyclopentyl)-1H-pyrazol-4-yl)pyrazolo[1,5-a]pyrazine]	1 to 10	1000 to 10000	100 to 1000	1000 to 10000	
CCC(CC)n1cc(-c2nc(-c3cnn(CCCO)c3)cn3nccc23)cn1 [Example 19, 3-(4-(4-(1-(pentan-3-yl)-1H-pyrazol-4-yl)pyrazolo[1,5-a]pyrazin-6-yl)-1H-pyrazol-1-yl)propan-1-ol]	1 to 10	1000 to 10000	1000 to 10000	1000 to 10000	
CC(C)C[C@@H](C)n1cc(-c2nc(-c3cnn(C[C@@H](O)CO)c3)cn3nccc23)cn1 [Example 77, (R)-3-(4-(4-(1-((R)-4-methylpentan-2-yl)-1H-pyrazol-4-yl)pyrazolo[1,5-a]pyrazin-6-yl)-1H-pyrazol-1-yl)propane-1,2-diol]	1 to 10	100 to 1000	100 to 1000		1000 to 10000

The next lines start with the values.

IC50 [1] [µM]	IC50 [2] [nM]	IC50 [3] [nM]	IC50 [4] [nM]	IC50 [4, 5] [nM]	SMILES
1 to 10	1000 to 10000	1000 to 10000	1000 to 10000		CCOC(C)n1cc(-c2nc(-c3cnn(C)c3)cn3nccc23)cn1 (centres unmarked) [Example 1, 4-(1-(1-ethoxyethyl)-1H-pyrazol-4-yl)-6-(1-methyl-1H-pyrazol-4-yl)pyrazolo[1,5-a]pyrazine]
1 to 10	10 to 100	10 to 100	100 to 1000		CCC(CC)n1cc(-c2nc(-c3cnn(C4CN(C(=O)CO)C4)c3)cn3nccc23)cn1 [compound 174, 2-hydroxy-1-(3-(4-(4-(1-(pentan-3-yl)-1H-pyrazol-4-yl)pyrazolo[1,5-a]pyrazin-6-yl)-1H-pyrazol-1-yl)azetidin-1-yl)ethanone]
1 to 10	100 to 1000	100 to 1000		100 to 1000	CCC[C@H](C)n1cc(-c2nc(-c3cnn(C[C@@H](O)CO)c3)cn3nccc23)cn1 [Example 72, (R)-3-(4-(4-(1-((S)-pentan-2-yl)-1H-pyrazol-4-yl)pyrazolo[1,5-a]pyrazin-6-yl)-1H-pyrazol-1-yl)propane-1,2-diol]
1 to 10	100 to 1000	10 to 100		1000 to 10000	CCC[C@@H](C)n1cc(-c2nc(-c3cnn(C[C@H](O)CO)c3)cn3nccc23)cn1 [Example 74, (S)-3-(4-(4-(1-((R)-pentan-2-yl)-1H-pyrazol-4-yl)pyrazolo[1,5-a]pyrazin-6-yl)-1H-pyrazol-1-yl)propane-1,2-diol]
